# Reference: PubChem BioAssay AID270 (DTP/NCI, 2004)
# Where “and” joins values, the source holds several entries; their conditions need not be identical. Identical values can stand only once. Inconclusive results are not listed.
# Test system: BDF1 mice, s.c. Lewis lung carcinoma, T/C %
# Test: NCI In Vivo Anticancer Drug Screen. Data for tumor model Lewis Lung Carcinoma (subcutaneous) in B6D2F1 (BDF1) mice
# In short: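 Readout: survival or tumor size, expressed as treated (T) over vehicle control (C). Transplantable tumor implanted in mice; compound given to the treated group.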
# [1] = endpoint: mean tumor weight, dose: 25.0 mg/kg/injection, schedule: Q01DX011 (ip), vehicle: carboxymethylcellulose (CMC), higher = larger tumour
smiles,measurement,setting,value
O=NN(CCF)C(=O)NC1CSCSC1,T/C,"endpoint: median tumor weight (est.), dose: 14.0 mg/kg/injection, schedule: Q01DX001 (ip), vehicle: saline with Tween-80, higher = larger tumour",61 % of control
same,T/C,"endpoint: median tumor weight (est.), dose: 27.0 mg/kg/injection, schedule: Q01DX001 (ip), vehicle: saline with Tween-80, higher = larger tumour",45 % of control
same,T/C,"endpoint: median tumor weight (est.), dose: 41.0 mg/kg/injection, schedule: Q01DX001 (ip), vehicle: saline with Tween-80, higher = larger tumour",8 % of control
COc1ccc(-c2cc(=O)c3c(OC)c(OC)c(OC)c(OC)c3o2)cc1OC,T/C,"endpoint: mean tumor weight, dose: 50.0 mg/kg/injection, schedule: Q01DX011 (ip), vehicle: saline, higher = larger tumour",55 % of control and 77 % of control
same,T/C,"endpoint: mean tumor weight, dose: 200.0 mg/kg/injection, schedule: Q01DX011 (ip), vehicle: saline, higher = larger tumour",62 % of control and 78 % of control
CN(C)Cc1c[nH]c2ccccc12,T/C,"endpoint: mean tumor weight, dose: 26.6 mg/kg/injection, schedule: Q01DX011 (ip), vehicle: carboxymethylcellulose (CMC), higher = larger tumour",94 % of control
same,T/C,"endpoint: mean tumor weight, dose: 40.0 mg/kg/injection, schedule: Q01DX011 (ip), vehicle: carboxymethylcellulose (CMC), higher = larger tumour",70 % of control
same,T/C,"endpoint: mean tumor weight, dose: 60.0 mg/kg/injection, schedule: Q01DX011 (ip), vehicle: carboxymethylcellulose (CMC), higher = larger tumour",62 % of control
same,T/C,"endpoint: mean tumor weight, dose: 90.0 mg/kg/injection, schedule: Q01DX011 (ip), vehicle: carboxymethylcellulose (CMC), higher = larger tumour",57 % of control
CC[C@@]1(O)C[C@H](OC2CC(N(C)C)C(OC3CC(O)C(OC4CCC(=O)C(C)O4)C(C)O3)C(C)O2)c2c(cc3c(c2O)C(=O)c2c(O)cccc2C3=O)[C@H]1C(=O)OC (stereo partly specified),T/C,"endpoint: median survival time, dose: 1.5 mg/kg/injection, schedule: Q01DX009 (ip), vehicle: Klucel (hydroxypropylcellulose) (HPC), higher = longer survival",104 % of control
COc1c(Cl)cc2c(c1OC)N(C)C1N3C(=O)C4(C)SSC3(C(=O)N4C)C(O)C21O (stereo unspecified),T/C,"endpoint: median survival time, dose: 0.12 mg/kg/injection, schedule: Q01DX009 (ip), vehicle: Klucel (hydroxypropylcellulose) (HPC), higher = longer survival",96 % of control
same,T/C,"endpoint: median survival time, dose: 0.25 mg/kg/injection, schedule: Q01DX009 (ip), vehicle: Klucel (hydroxypropylcellulose) (HPC), higher = longer survival",94 % of control
same,T/C,"endpoint: median survival time, dose: 0.5 mg/kg/injection, schedule: Q01DX009 (ip), vehicle: Klucel (hydroxypropylcellulose) (HPC), higher = longer survival",96 % of control
CS(=O)(=O)OCCCNCCCOS(C)(=O)=O,T/C,"endpoint: mean tumor weight, dose: 10.0 mg/kg/injection, schedule: Q01DX011 (ip), vehicle: saline, higher = larger tumour",63 % of control
same,T/C,"endpoint: mean tumor weight, dose: 20.0 mg/kg/injection, schedule: Q01DX011 (ip), vehicle: saline, higher = larger tumour",70 % of control
same,T/C,"endpoint: mean tumor weight, dose: 40.0 mg/kg/injection, schedule: Q01DX011 (ip), vehicle: saline, higher = larger tumour",42 % of control
same,T/C,"endpoint: median survival time, dose: 10.0 mg/kg/injection, schedule: Q01DX009 (ip), vehicle: saline, higher = longer survival",105 % of control
same,T/C,"endpoint: median survival time, dose: 20.0 mg/kg/injection, schedule: Q01DX009 (ip), vehicle: saline, higher = longer survival",101 % of control
OC(COc1cccc2ccccc12)CN(CCCl)CCCl (stereo unspecified),T/C,"endpoint: median survival time, dose: 1.25 mg/kg/injection, schedule: Q01DX009 (ip), vehicle: Klucel (hydroxypropylcellulose) (HPC), higher = longer survival",94 % of control and 104 % of control
same,T/C,"endpoint: median survival time, dose: 2.5 mg/kg/injection, schedule: Q01DX009 (ip), vehicle: Klucel (hydroxypropylcellulose) (HPC), higher = longer survival",100 % of control and 101 % of control
same,T/C,"endpoint: median survival time, dose: 5.0 mg/kg/injection, schedule: Q01DX009 (ip), vehicle: Klucel (hydroxypropylcellulose) (HPC), higher = longer survival",103 % of control
O=C(Nc1ccc2c(c1)Cc1cccc(NC(=O)C(Cl)Cl)c1-2)C(Cl)Cl,T/C,"endpoint: mean tumor weight, dose: 45.0 mg/kg/injection, schedule: Q01DX011 (ip), vehicle: carboxymethylcellulose (CMC), higher = larger tumour",72 % of control
Nc1nc(SCc2ccccc2Cl)c2[nH]cnc2n1,T/C,"endpoint: mean tumor weight, dose: 3.8 mg/kg/injection, schedule: Q01DX011 (ip), vehicle: other, higher = larger tumour",82 % of control
same,T/C,"endpoint: mean tumor weight, dose: 7.5 mg/kg/injection, schedule: Q01DX011 (ip), vehicle: other, higher = larger tumour",38 % of control
same,T/C,"endpoint: mean tumor weight, dose: 15.0 mg/kg/injection, schedule: Q01DX011 (ip), vehicle: other, higher = larger tumour",99 % of control
same,T/C,"endpoint: mean tumor weight, dose: 60.0 mg/kg/injection, schedule: Q01DX011 (ip), vehicle: other, higher = larger tumour",29 % of control
same,T/C,"endpoint: mean tumor weight, dose: 120.0 mg/kg/injection, schedule: Q01DX011 (ip), vehicle: other, higher = larger tumour",11 % of control
COc1ccc(-c2ccc(OC)c(OC)c2OC)c(N)c1,T/C,"endpoint: mean tumor weight, dose: 375.0 mg/kg/injection, schedule: Q01DX011 (ip), vehicle: carboxymethylcellulose (CMC), higher = larger tumour",58 % of control
same,T/C,"endpoint: mean tumor weight, dose: 500.0 mg/kg/injection, schedule: Q01DX011 (ip), vehicle: carboxymethylcellulose (CMC), higher = larger tumour",89 % of control
same,T/C,"endpoint: mean tumor weight, dose: 625.0 mg/kg/injection, schedule: Q01DX011 (ip), vehicle: carboxymethylcellulose (CMC), higher = larger tumour",74 % of control
same,T/C,"endpoint: mean tumor weight, dose: 750.0 mg/kg/injection, schedule: Q01DX011 (ip), vehicle: carboxymethylcellulose (CMC), higher = larger tumour",56 % of control
same,T/C,"endpoint: median survival time, dose: 25.0 mg/kg/injection, schedule: Q01DX009 (ip), vehicle: saline with Tween-80, higher = longer survival",101 % of control
same,T/C,"endpoint: median survival time, dose: 50.0 mg/kg/injection, schedule: Q01DX009 (ip), vehicle: saline with Tween-80, higher = longer survival",107 % of control
same,T/C,"endpoint: median survival time, dose: 100.0 mg/kg/injection, schedule: Q01DX009 (ip), vehicle: saline with Tween-80, higher = longer survival",108 % of control
same,T/C,"endpoint: median survival time, dose: 200.0 mg/kg/injection, schedule: Q01DX009 (ip), vehicle: saline with Tween-80, higher = longer survival",106 % of control
CC1(C)OCC(CO)(Nc2nc(N3CC3)nc(N3CC3)n2)CO1,T/C,"endpoint: median survival time, dose: 0.62 mg/kg/injection, schedule: Q01DX009 (ip), vehicle: saline, higher = longer survival",100 % of control and 119 % of control
same,T/C,"endpoint: median survival time, dose: 1.25 mg/kg/injection, schedule: Q01DX009 (ip), vehicle: saline, higher = longer survival",115 % of control and 116 % of control
same,T/C,"endpoint: median survival time, dose: 2.5 mg/kg/injection, schedule: Q01DX009 (ip), vehicle: saline, higher = longer survival",112 % of control
CC1OC(OCC2OC(Oc3c(-c4ccc(O)c(O)c4)oc4cc(O)cc(O)c4c3=O)C(O)C(O)C2O)C(O)C(O)C1O (stereo unspecified),T/C,"endpoint: mean tumor weight, dose: 62.5 mg/kg/injection, schedule: Q01DX011 (ip), vehicle: saline, higher = larger tumour",104 % of control
same,T/C,"endpoint: mean tumor weight, dose: 125.0 mg/kg/injection, schedule: Q01DX011 (ip), vehicle: saline, higher = larger tumour",93 % of control
same,T/C,"endpoint: mean tumor weight, dose: 250.0 mg/kg/injection, schedule: Q01DX011 (ip), vehicle: saline, higher = larger tumour",67 % of control
same,T/C,"endpoint: mean tumor weight, dose: 500.0 mg/kg/injection, schedule: Q01DX011 (ip), vehicle: saline, higher = larger tumour",52 % of control
Cc1c(C)c2c(c(C)c1O)CCC(C)(CCCC(C)CCCC(C)CCCC(C)C)O2 (stereo unspecified),T/C,"endpoint: median survival time, dose: 12.5 mg/kg/injection, schedule: Q02DX009 (ip), vehicle: olive oil, sesame oil, peanut oil, higher = longer survival",116 % of control
same,T/C,"endpoint: median survival time, dose: 25.0 mg/kg/injection, schedule: Q02DX009 (ip), vehicle: olive oil, sesame oil, peanut oil, higher = longer survival",100 % of control
same,T/C,"endpoint: median survival time, dose: 50.0 mg/kg/injection, schedule: Q02DX009 (ip), vehicle: olive oil, sesame oil, peanut oil, higher = longer survival",108 % of control
same,T/C,"endpoint: median survival time, dose: 100.0 mg/kg/injection, schedule: Q02DX009 (ip), vehicle: olive oil, sesame oil, peanut oil, higher = longer survival",104 % of control
same,T/C,"endpoint: median survival time, dose: 200.0 mg/kg/injection, schedule: Q02DX009 (ip), vehicle: olive oil, sesame oil, peanut oil, higher = longer survival",122 % of control
same,T/C,"endpoint: median survival time, dose: 400.0 mg/kg/injection, schedule: Q02DX009 (ip), vehicle: olive oil, sesame oil, peanut oil, higher = longer survival",118 % of control
CCC1CCC(NC(=O)N(CCF)N=O)CC1 (stereo unspecified),T/C,"endpoint: median tumor weight (est.), dose: 50.0 mg/kg/injection, schedule: Q01DX001 (ip), vehicle: saline with Tween-80, higher = larger tumour",62 % of control
CC(NC(=O)C1(N)CCCC1)C(=O)O (stereo unspecified),T/C,"endpoint: mean tumor weight, dose: 6.0 mg/kg/injection, schedule: Q01DX011 (ip), vehicle: carboxymethylcellulose (CMC), higher = larger tumour",59 % of control
same,T/C,[1],60 % of control
Cc1ccccc1Cc1ccccc1,T/C,"endpoint: mean tumor weight, dose: 78.0 mg/kg/injection, schedule: Q01DX011 (ip), vehicle: saline, higher = larger tumour",121 % of control
same,T/C,"endpoint: mean tumor weight, dose: 117.0 mg/kg/injection, schedule: Q01DX011 (ip), vehicle: saline, higher = larger tumour",111 % of control
same,T/C,"endpoint: mean tumor weight, dose: 175.0 mg/kg/injection, schedule: Q01DX011 (ip), vehicle: saline, higher = larger tumour",85 % of control
same,T/C,"endpoint: mean tumor weight, dose: 263.0 mg/kg/injection, schedule: Q01DX011 (ip), vehicle: saline, higher = larger tumour",103 % of control
O=NN(CCCl)C(=O)Nc1ccc(I)cc1,T/C,"endpoint: median survival time, dose: 3.12 mg/kg/injection, schedule: Q01DX009 (ip), vehicle: Klucel (hydroxypropylcellulose) (HPC), higher = longer survival",92 % of control
same,T/C,"endpoint: median survival time, dose: 6.25 mg/kg/injection, schedule: Q01DX009 (ip), vehicle: Klucel (hydroxypropylcellulose) (HPC), higher = longer survival",97 % of control
same,T/C,"endpoint: median survival time, dose: 12.5 mg/kg/injection, schedule: Q01DX009 (ip), vehicle: Klucel (hydroxypropylcellulose) (HPC), higher = longer survival",101 % of control
same,T/C,"endpoint: median survival time, dose: 50.0 mg/kg/injection, schedule: Q01DX009 (ip), vehicle: Klucel (hydroxypropylcellulose) (HPC), higher = longer survival",108 % of control
O=C1C=CC2(CCC23C=CC(=O)O3)O1 (stereo unspecified),T/C,"endpoint: mean tumor weight, dose: 13.0 mg/kg/injection, schedule: Q01DX011 (ip), vehicle: saline, higher = larger tumour",102 % of control
same,T/C,"endpoint: mean tumor weight, dose: 30.0 mg/kg/injection, schedule: Q01DX011 (ip), vehicle: saline, higher = larger tumour",85 % of control
same,T/C,"endpoint: mean tumor weight, dose: 45.0 mg/kg/injection, schedule: Q01DX011 (ip), vehicle: saline, higher = larger tumour",80 % of control and 83 % of control
same,T/C,"endpoint: mean tumor weight, dose: 65.0 mg/kg/injection, schedule: Q01DX011 (ip), vehicle: saline, higher = larger tumour",66 % of control
O=NN(CCCl)C(=O)Nc1ccc(Cl)c(Cl)c1,T/C,"endpoint: median survival time, dose: 8.0 mg/kg/injection, schedule: Q01DX009 (ip), vehicle: saline with Tween-80, higher = longer survival",116 % of control
same,T/C,"endpoint: median survival time, dose: 16.0 mg/kg/injection, schedule: Q01DX009 (ip), vehicle: saline with Tween-80, higher = longer survival",106 % of control
CS(=O)(=O)OCCCCCCCCCOS(C)(=O)=O,T/C,"endpoint: mean tumor weight, dose: 12.5 mg/kg/injection, schedule: Q01DX011 (ip), vehicle: carboxymethylcellulose (CMC), higher = larger tumour",104 % of control and 105 % of control
same,T/C,[1],68 % of control and 84 % of control
Nc1nc(SN=Nc2ccc(S(=O)(=O)O)cc2)c2[nH]cnc2n1,T/C,"endpoint: mean tumor weight, dose: 1.0 mg/kg/injection, schedule: Q01DX011 (ip), vehicle: saline, higher = larger tumour",78 % of control
same,T/C,"endpoint: mean tumor weight, dose: 5.0 mg/kg/injection, schedule: Q01DX011 (ip), vehicle: saline, higher = larger tumour",65 % of control
same,T/C,"endpoint: mean tumor weight, dose: 9.0 mg/kg/injection, schedule: Q01DX011 (ip), vehicle: saline, higher = larger tumour",40 % of control
same,T/C,"endpoint: mean tumor weight, dose: 15.0 mg/kg/injection, schedule: Q01DX011 (ip), vehicle: saline, higher = larger tumour",40 % of control
